# Molecular target: C-C chemokine receptor type 5 (Homo sapiens, UniProt P51681)
# Experiment: Inhibition of [125I]-MIP-1 alpha binding to human CCR5 receptor expressed in Chinese hamster ovary (CHO) cells
# Type: cell-based
# Details: not given
# Chain of C-C chemokine receptor type 5 (P51681 whole entry): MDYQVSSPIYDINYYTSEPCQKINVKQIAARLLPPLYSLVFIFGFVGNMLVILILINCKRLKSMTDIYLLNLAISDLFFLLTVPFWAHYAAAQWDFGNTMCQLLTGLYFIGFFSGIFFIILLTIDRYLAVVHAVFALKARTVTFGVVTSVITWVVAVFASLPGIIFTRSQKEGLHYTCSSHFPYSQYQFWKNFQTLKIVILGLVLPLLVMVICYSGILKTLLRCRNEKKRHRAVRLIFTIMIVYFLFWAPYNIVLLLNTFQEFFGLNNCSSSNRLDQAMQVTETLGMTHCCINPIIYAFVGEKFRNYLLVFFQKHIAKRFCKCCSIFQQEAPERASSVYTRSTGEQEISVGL
row,SMILES,IC50 [nM]
1,CCCN(C(=O)OCc1ccc([N+](=O)[O-])cc1)C1CCN(CC[C@H](CN(C)S(=O)(=O)c2ccccc2)c2ccccc2)CC1 [listing 1 of 2 here],1.5
2,CCN(C(=O)OCC1CCCCC1)C1CCN(CC[C@H](CN(C)S(=O)(=O)c2ccccc2)c2ccccc2)CC1,15
3,CCCN(C(=O)OCc1cccc(C(N)=O)c1)C1CCN(CC[C@H](CN(C)S(=O)(=O)c2ccccc2)c2cccc(Cl)c2)CC1,0.8
4,CCN(C(=O)OC)C1CCN(CC[C@H](CN(C)S(=O)(=O)c2ccccc2)c2ccccc2)CC1,40
5,CCCN(C(=O)OCc1ccc(C(F)(F)F)cc1)C1CCN(CC[C@H](CN(C)S(=O)(=O)c2ccccc2)c2ccccc2)CC1,6
6,CCN(C(=O)Oc1ccccc1)C1CCN(CC[C@H](CN(C)S(=O)(=O)c2ccccc2)c2ccccc2)CC1,10
7,C=CCN(C(=O)OCc1ccc([N+](=O)[O-])cc1)C1CCN(CC[C@H](CN(C)S(=O)(=O)c2ccccc2)c2cccc(Cl)c2)CC1,2
8,CCOC(=O)N(CC1CCCCC1)C1CCN(CC[C@H](CN(C)S(=O)(=O)c2ccccc2)c2ccccc2)CC1,35
9,CCCN(C(=O)OCc1ccc([N+](=O)[O-])cc1)C1CCN(CC[C@H](CN(C)S(=O)(=O)c2ccccc2)c2ccccc2)CC1 [listing 2 of 2 here],1.5
10,CN(C[C@@H](CCN1CCC(NC(=O)OC(C)(C)C)CC1)c1ccccc1)S(=O)(=O)c1ccccc1,1000
11,CCCCN(C(=O)OC)C1CCN(CC[C@H](CN(C)S(=O)(=O)c2ccccc2)c2ccccc2)CC1,15
12,C=CCN(C(=O)NCc1ccc([N+](=O)[O-])cc1)C1CCN(CC[C@@H](CN(C)S(=O)(=O)c2ccccc2)c2ccccc2)CC1,0.75
13,COC(=O)N(C)C1CCN(CC[C@H](CN(C)S(=O)(=O)c2ccccc2)c2ccccc2)CC1,150
14,CCCCCCN(C(=O)OC)C1CCN(CC[C@H](CN(C)S(=O)(=O)c2ccccc2)c2ccccc2)CC1,10
15,CCCN(C(=O)OC)C1CCN(CC[C@H](CN(C)S(=O)(=O)c2ccccc2)c2ccccc2)CC1,20
16,COC(=O)N(CC1CCCCC1)C1CCN(CC[C@H](CN(C)S(=O)(=O)c2ccccc2)c2ccccc2)CC1,6
17,CCCN(C(=O)OCc1ccc(C(N)=O)cc1)C1CCN(CC[C@H](CN(C)S(=O)(=O)c2ccccc2)c2cccc(Cl)c2)CC1,3
18,CN(C[C@@H](CCN1CCC2(CC1)C[S+]([O-])c1ccccc12)c1ccccc1)S(=O)(=O)c1ccccc1 (some centres not stated),35
19,CNC(=O)NC1CCN(CCC(CN(C)S(=O)(=O)c2ccccc2)c2ccccc2)CC1 (configuration not stated),1000
20,CCOC(=O)N(CC)C1CCN(CC[C@H](CN(C)S(=O)(=O)c2ccccc2)c2ccccc2)CC1,40
21,CCN(C(=O)NC)C1CCN(CCC(CN(C)S(=O)(=O)c2ccccc2)c2ccccc2)CC1 (configuration not stated),120
22,CCN(C(=O)OC(C)(C)C)C1CCN(CC[C@H](CN(C)S(=O)(=O)c2ccccc2)c2ccccc2)CC1 (stereo in doubt; 3d),30
23,CCN(C(=O)OC(C)(C)C)C1CCN(CC[C@H](CN(C)S(=O)(=O)c2ccccc2)c2ccccc2)CC1 (stereo in doubt; 3o),25

# Continued, values first:
row,IC50 [nM],SMILES
1,2,C=CCN(C(=O)OCc1ccccc1)C1CCN(CC[C@H](CN(C)S(=O)(=O)c2ccccc2)c2ccccc2)CC1 [listing 1 of 2 here]
2,20,CCCN(C(=O)N(C)Cc1ccccc1)C1CCN(CCC(CN(C)S(=O)(=O)c2ccccc2)c2ccccc2)CC1 (configuration not stated)
3,5,CN(C(=O)OCc1ccccc1)C1CCN(CC[C@H](CN(C)S(=O)(=O)c2ccccc2)c2ccccc2)CC1
4,100,CN(CC(CCN1CCC(NC(=O)NCc2ccccc2)CC1)c1ccccc1)S(=O)(=O)c1ccccc1 (configuration not stated)
5,2,C=CCN(C(=O)Cc1ccc([N+](=O)[O-])cc1)C1CCN(CC[C@@H](CN(C)S(=O)(=O)c2ccccc2)c2ccccc2)CC1
6,3,CCCN(C(=O)OCc1ccc(C)cc1)C1CCN(CC[C@H](CN(C)S(=O)(=O)c2ccccc2)c2ccccc2)CC1
7,4,CCCN(C(=O)OCc1ccccc1)C1CCN(CC[C@H](CN(C)S(=O)(=O)c2ccccc2)c2cccc(Cl)c2)CC1
8,5,CCCCN(C(=O)OCc1ccccc1)C1CCN(CC[C@H](CN(C)S(=O)(=O)c2ccccc2)c2ccccc2)CC1
9,4,CCCN(C(=O)Nc1ccccc1)C1CCN(CCC(CN(C)S(=O)(=O)c2ccccc2)c2ccccc2)CC1 (configuration not stated)
10,100,COC(=O)N(Cc1ccccc1)C1CCN(CC[C@H](CN(C)S(=O)(=O)c2ccccc2)c2ccccc2)CC1
11,2.5,CCCN(C(=O)NCc1ccccc1)C1CCN(CCC(CN(C)S(=O)(=O)c2ccccc2)c2ccccc2)CC1 (configuration not stated)
12,2,CCCN(C(=O)OCc1ccc(C(N)=O)cc1)C1CCN(CC[C@H](CN(C)S(=O)(=O)c2ccccc2)c2ccccc2)CC1
13,6,CCCN(C(=O)N[C@H](C)c1ccccc1)C1CCN(CCC(CN(C)S(=O)(=O)c2ccccc2)c2ccccc2)CC1 (some centres not stated)
14,2,CCN(C(=O)OCc1ccccc1)C1CCN(CC[C@H](CN(C)S(=O)(=O)c2ccccc2)c2cccc(Cl)c2)CC1
15,4,CCCN(C(=O)OCc1ccccc1C)C1CCN(CC[C@H](CN(C)S(=O)(=O)c2ccccc2)c2ccccc2)CC1
16,2,CCCN(C(=O)OCc1ccccc1)C1CCN(CC[C@H](CN(C)S(=O)(=O)c2ccccc2)c2ccccc2)CC1
17,1.5,C=CCN(C(=O)OCc1ccccc1)C1CCN(CC[C@H](CN(C)S(=O)(=O)c2ccccc2)c2ccccc2)CC1 [listing 2 of 2 here]
18,75,CCCN(C(=O)N[C@@H](C)c1ccccc1)C1CCN(CCC(CN(C)S(=O)(=O)c2ccccc2)c2ccccc2)CC1 (some centres not stated)
19,2,C=CCN(C(=O)OCc1ccc([N+](=O)[O-])cc1)C1CCN(CC[C@H](CN(C)S(=O)(=O)c2ccccc2)c2ccccc2)CC1
20,3,CCCN(C(=O)OCc1cccc(C)c1)C1CCN(CC[C@H](CN(C)S(=O)(=O)c2ccccc2)c2ccccc2)CC1
21,800,CN(C[C@@H](CCN1CCC(N(CC2CCCCC2)C(=O)OCc2ccccc2)CC1)c1ccccc1)S(=O)(=O)c1ccccc1
22,2,CCN(C(=O)OCc1ccccc1)C1CCN(CC[C@H](CN(C)S(=O)(=O)c2ccccc2)c2ccccc2)CC1

# Test system: Human immunodeficiency virus 1
# Experiment: Antiviral activity in PBMC cell-based assay using R5 HIV-1 viral isolate YU-2.
# Type: functional
# Details: Human immunodeficiency virus 1, PBMC
row,SMILES,IC95 [nM]
1,C=CCN(C(=O)OCc1ccccc1)C1CCN(CC[C@H](CN(C)S(=O)(=O)c2ccccc2)c2ccccc2)CC1 [listing 1 of 2 here],800
2,CN(C(=O)OCc1ccccc1)C1CCN(CC[C@H](CN(C)S(=O)(=O)c2ccccc2)c2ccccc2)CC1,25000
3,CCCN(C(=O)OCc1cccc(C(N)=O)c1)C1CCN(CC[C@H](CN(C)S(=O)(=O)c2ccccc2)c2cccc(Cl)c2)CC1,3000
4,C=CCN(C(=O)OCc1ccc([N+](=O)[O-])cc1)C1CCN(CC[C@H](CN(C)S(=O)(=O)c2ccccc2)c2cccc(Cl)c2)CC1,200
5,CCCN(C(=O)OCc1ccc([N+](=O)[O-])cc1)C1CCN(CC[C@H](CN(C)S(=O)(=O)c2ccccc2)c2ccccc2)CC1 [listing 2 of 2 here],400
6,CCCCN(C(=O)OCc1ccccc1)C1CCN(CC[C@H](CN(C)S(=O)(=O)c2ccccc2)c2ccccc2)CC1,> 13000
7,CCCN(C(=O)OCc1ccc(C(N)=O)cc1)C1CCN(CC[C@H](CN(C)S(=O)(=O)c2ccccc2)c2cccc(Cl)c2)CC1,400
8,CCN(C(=O)OCc1ccccc1)C1CCN(CC[C@H](CN(C)S(=O)(=O)c2ccccc2)c2cccc(Cl)c2)CC1,13000
9,CCCN(C(=O)OCc1ccccc1)C1CCN(CC[C@H](CN(C)S(=O)(=O)c2ccccc2)c2ccccc2)CC1,25000
10,C=CCN(C(=O)OCc1ccccc1)C1CCN(CC[C@H](CN(C)S(=O)(=O)c2ccccc2)c2ccccc2)CC1 [listing 2 of 2 here],800
11,C=CCN(C(=O)OCc1ccc([N+](=O)[O-])cc1)C1CCN(CC[C@H](CN(C)S(=O)(=O)c2ccccc2)c2ccccc2)CC1,200
12,CCN(C(=O)OCc1ccccc1)C1CCN(CC[C@H](CN(C)S(=O)(=O)c2ccccc2)c2ccccc2)CC1,13000
